Reference: patent US9688613B2 (Jiva Pharma, Inc., priority 2015, dated 2017)

The compounds below were run on GABA-A receptors (assay: Displacement of [3H] muscimol from GABA-A receptors). Conditions: LOG OF MOLAR CONC. −4.
Type: binding
Protocol: Muscimol is the principal psychoactive constituent of Amanita muscaria and related species of mushroom.
These tests were performed using the procedure described by Tomasz Plech et. al., Studies on anticonvulsant activity of 4-alkyl-1,2,4-triazole-3-thiones and their effect on GABAergic system; European J. of Medicinal Chem. 2014, 86, 690-699.

Going from CC/C=C\C/C=C\C/C=C\CCCCCCCC(CN)CC(=O)O (centres unmarked) [Example 3, 3-Aminomethyl-eicosa-11,14,17-trienoic Acid] to CC/C=C\C/C=C\C/C=C\C/C=C\C/C=C\CCCC(CN)CC(=O)O (centres unmarked) [Example 2, 3-Aminomethyl-docosa-7,10,13,16,19-pentaenoic Acid], the “% of [3H]-MUSCIMOL inhibition” value rises from 8% to 15%.

Going from CC/C=C\C/C=C\C/C=C\C/C=C\C/C=C\C/C=C\CCC(CN)CC(=O)O (centres unmarked) [Example 1, 3-Aminomethyl-tetracosa-6,9,12,15,18,21-hexaenoic Acid] to CC(C)C[C@H](CN)CC(=O)O [Pregabalin, S-isobutylgaba, reference compound], the “% of [3H]-MUSCIMOL inhibition” value rises from 10% to 12%.

Same assay, conditions: LOG OF MOLAR CONC. −5

Going from CC/C=C\C/C=C\C/C=C\CCCCCCCC(CN)CC(=O)O (centres unmarked) [Example 3, 3-Aminomethyl-eicosa-11,14,17-trienoic Acid] to CC/C=C\C/C=C\C/C=C\C/C=C\C/C=C\CCCC(CN)CC(=O)O (centres unmarked) [Example 2, 3-Aminomethyl-docosa-7,10,13,16,19-pentaenoic Acid], the “% of [3H]-MUSCIMOL inhibition” value rises from 0% to 10%.

CC/C=C\C/C=C\C/C=C\C/C=C\C/C=C\C/C=C\CCC(CN)CC(=O)O (centres unmarked) [Example 1, 3-Aminomethyl-tetracosa-6,9,12,15,18,21-hexaenoic Acid] and CC(C)C[C@H](CN)CC(=O)O [Pregabalin, S-isobutylgaba, reference compound] are the same in “% of [3H]-MUSCIMOL inhibition” value: 0% for the first, 0% for the second.
